Reference: patent US5594135A, “Tricyclic DNA gyrase inhibitors” (Hoffmann-La Roche Inc., priority 1994, dated 1997)
Values after ≈ are worked out from the molar mass of the structure shown.

Experiments:
E. coli B = assay: Antibacterial activity in vitro (agar dilution); type: cell-based; details: Escherichia coli, agar dilution (MuellerHinton agar), inoculum 10^4 CFU/spot, read-out: minimum inhibitory concentration (MIC)
P. aeruginosa 799/61 = assay: Antibacterial activity in vitro (agar dilution); type: cell-based; details: Pseudomonas aeruginosa, agar dilution (MuellerHinton agar), inoculum 10^4 CFU/spot, read-out: minimum inhibitory concentration (MIC)
S. aureus 25923 = assay: Antibacterial activity in vitro (agar dilution); type: cell-based; details: Staphylococcus aureus, agar dilution (MuellerHinton agar), inoculum 10^4 CFU/spot, read-out: minimum inhibitory concentration (MIC)
S. aureus Smith = assay: Antibacterial activity in vitro (agar dilution); type: cell-based; details: Staphylococcus aureus, agar dilution (MuellerHinton agar), inoculum 10^4 CFU/spot, read-out: minimum inhibitory concentration (MIC)
S. epidermidis 16-2 = assay: Antibacterial activity in vitro (agar dilution); type: cell-based; details: Staphylococcus epidermidis, 162, agar dilution (MuellerHinton agar), inoculum 10^4 CFU/spot, read-out: minimum inhibitory concentration (MIC)
S. pyogenes 15 = assay: Antibacterial activity in vitro (agar dilution); type: cell-based; details: Streptococcus pyogenes, agar dilution (MuellerHinton agar), inoculum 10^4 CFU/spot, read-out: minimum inhibitory concentration (MIC)
S. faecalis 6 = assay: Antibacterial activity in vitro (agar dilution); type: cell-based; details: Enterococcus faecalis, agar dilution (MuellerHinton agar), inoculum 10^4 CFU/spot, read-out: minimum inhibitory concentration (MIC)
DNA gyrase = target: T1, DNA gyrase (Escherichia coli, UniProt P0AES4+P0AES6); assay: Inhibition of DNA gyrase activity (DNA gyrase supercoiling assay, relaxed pUC18 plasmid as substrate); type: biochemical, E. coli H560
T1 construct: supercoiling of relaxed pUC18
T1 sequence (P0AES4 whole entry, one chain of several): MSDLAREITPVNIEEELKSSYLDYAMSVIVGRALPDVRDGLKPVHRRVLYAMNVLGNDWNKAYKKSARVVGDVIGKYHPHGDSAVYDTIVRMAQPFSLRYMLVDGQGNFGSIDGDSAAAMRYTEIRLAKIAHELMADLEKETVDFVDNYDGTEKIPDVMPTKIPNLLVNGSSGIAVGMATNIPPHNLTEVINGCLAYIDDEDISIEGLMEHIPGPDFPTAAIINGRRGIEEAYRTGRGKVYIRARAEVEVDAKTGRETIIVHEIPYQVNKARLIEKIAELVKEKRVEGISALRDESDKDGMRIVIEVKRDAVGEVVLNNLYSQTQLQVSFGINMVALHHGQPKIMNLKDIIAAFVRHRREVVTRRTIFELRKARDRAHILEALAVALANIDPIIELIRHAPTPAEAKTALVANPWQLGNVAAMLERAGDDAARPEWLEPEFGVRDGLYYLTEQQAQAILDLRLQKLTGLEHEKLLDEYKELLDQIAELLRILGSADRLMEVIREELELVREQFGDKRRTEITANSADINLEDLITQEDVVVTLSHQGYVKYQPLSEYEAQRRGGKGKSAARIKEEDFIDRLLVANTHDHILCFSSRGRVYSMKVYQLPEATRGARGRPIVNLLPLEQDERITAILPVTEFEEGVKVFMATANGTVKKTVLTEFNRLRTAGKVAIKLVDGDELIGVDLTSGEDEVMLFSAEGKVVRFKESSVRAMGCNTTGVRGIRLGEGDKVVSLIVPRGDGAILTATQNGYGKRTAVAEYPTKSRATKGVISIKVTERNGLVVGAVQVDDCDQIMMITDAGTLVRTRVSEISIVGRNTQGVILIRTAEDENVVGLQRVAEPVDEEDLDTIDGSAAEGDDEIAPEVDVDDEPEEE
Method: A. Inhibition of DNA gyrase activity
The inhibition of DNA gyrase activity was measured using a DNA gyrase supercoiling assay according to R. Otter & N. Cozzarelli: Methods in Enzymology, Vol. 100, pp 171-180 (1983). DNA gyrase was isolated from E. coli H560, and relaxed pUC18 plasmid was used as substrate. The activities as regards inhibition of DNA gyrase activity, expressed as maximum non-effective concentration of the test compound (MNC in μg/ml) are compiled in the following Table 1: […]

Structure (SMILES)	MIC (E. coli B) [µg/mL]	MIC (P. aeruginosa 799/61) [µg/mL]	MIC (S. aureus 25923) [µg/mL]	MIC (S. aureus Smith) [µg/mL]	MIC (S. epidermidis 16-2) [µg/mL]	MIC (S. pyogenes 15) [µg/mL]	MIC (S. faecalis 6) [µg/mL]	maximum non-effective concentration of the test compound (MNC) (DNA gyrase) [µg/mL]
COc1cc(O)c2c(c1C)C(=O)OCCCCC(=S)N[C@H](c1nc(CN)no1)CSC2.Cl [Example 130, (R)-4-(3-aminomethyl-1,2,4-oxadiazol-5-yl)-16-hydroxy-14-methoxy-13-methyl-6-thioxo-1,3,4,5,6,7,8,9,10,12-decahydro-11,2,5-benzoxathiaazacyclotetradecin-12-one hydrochloride]	32	64	0.5	0.25	0.12	0.5	0.5	
COc1cc(O)c2c(c1C)C(=O)OCCCCC(=O)N[C@H](c1nc(C)no1)CSC2 [Example 33, (R)-16-hydroxy-14-methoxy-13-methyl-4-(3-methyl-1,2,4-oxadiazol-5-yl)-1,3,4,5,6,7,8,9,10,12-decahydro-11,2,5-benzoxathiaazacyclotetradecine-6,12-dione]	32 (≈ 73.5 µM)	4 (≈ 9.18 µM)	0.5 (≈ 1.15 µM)	0.25 (≈ 0.574 µM)	0.25 (≈ 0.574 µM)	1 (≈ 2.3 µM)	0.5 (≈ 1.15 µM)	0.01
COc1cc(O)c2c(c1C)C(=O)OCCCCC(=O)N[C@H](c1nc(C)no1)C[S@@+]([O-])C2 [Example 111, (2S,4R)-16-hydroxy-14-methoxy-13-methyl-4-(3-methyl-1,2,4-oxadiazol-5-yl)-2-oxo-1,3,4,5,6,7,8,9,10,12-benzoxathiaazacyclotetradecin-6,12-dione]								0.1
COC(=O)[C@@H]1CSCc2c(O)cc(OC)c(C)c2C(=O)O[C@H](COC(C)=O)CCC(=S)N1 [Example 11, (4R,9S)-9-acetoxymethyl-15-hydroxy-13-methoxy-12-methyl-11-oxo-6-thioxo-3,4,5,6,7,8,9,11-octahydro-1H-10,2,5-benzoxathiaazacyclotridecine-4-carboxylic acid methyl ester]	> 64	8 (≈ 16.5 µM)	0.5 (≈ 1.03 µM)	0.5 (≈ 1.03 µM)	0.12 (≈ 0.247 µM)	2 (≈ 4.12 µM)	2 (≈ 4.12 µM)	0.02
CCCNC(=O)[C@@H]1CSCc2c(O)cc(OC)c(C)c2C(=O)OCCCCC(=S)N1 [Example 26, (R)-16-hydroxy-14-methoxy-13-methyl-12-oxo-6-thioxo-1,3,4,5,6,7,8,9,10,12-decahydro-11,2,5-benzoxathiaazacyclotetradecine-4-carboxylic acid propylamide]	> 64	32 (≈ 70.4 µM)	2 (≈ 4.4 µM)	0.5 (≈ 1.1 µM)	0.12 (≈ 0.264 µM)	4 (≈ 8.8 µM)	2 (≈ 4.4 µM)	0.04
COc1cc(O)c2c(c1C)C(=O)O[C@H](CO)CCC(=S)N[C@H](c1nc(C)no1)CSC2 [Example 16, (4R,9S)-15-hydroxy-9-hydroxymethyl-13-methoxy-12-methyl-4-(3-methyl-1,2,4-oxadiazol-5-yl)-6-thioxo-3,4,5,6,7,8,9,11-octahydro-1H-10,2,5-benzoxathiaazacyclotridecine-11-one]								0.01
COc1cc(O)c(CSC[C@H](NC(C)=O)c2nc(C)no2)c(C#N)c1C [Example 97, (R)-N-[2-(2-cyano-6-hydroxy-4-methoxy-3-methyl-benzylsulfanyl]-1-(3-methyl-1,2,4-oxadiazol-5-yl)-ethyl]-acetamide]	64 (≈ 170 µM)	64 (≈ 170 µM)	16 (≈ 42.5 µM)	8 (≈ 21.3 µM)	1 (≈ 2.66 µM)	16 (≈ 42.5 µM)	16 (≈ 42.5 µM)	0.4
COC(=O)c1c(Br)c(OC)cc(O)c1CSC[C@H](NC(C)=S)c1nc(C)no1 [Example 71, (R)-2-bromo-5-hydroxy-3-methoxy-6-[2-(3-methyl-1,2,4-oxadiazol-5-yl)-2-thioacetylamino-ethylsulfanylmethyl]-benzoic acid methyl ester]	> 64	64 (≈ 131 µM)	2 (≈ 4.08 µM)	1 (≈ 2.04 µM)	0.5 (≈ 1.02 µM)	4 (≈ 8.16 µM)	4 (≈ 8.16 µM)	0.5
